Laboratory results taken from US20250059164A1, “IRAK DEGRADERS AND USES THEREOF” (Kymera Therapeutics, Inc., priority 2023, published 2025).

Molecular target: T1, IRAK4 (Homo sapiens, UniProt Q9NWZ3)
T1 construct: endogenous in cells; host or cells: OCI-LY10
T1 sequence (Q9NWZ3 1-460): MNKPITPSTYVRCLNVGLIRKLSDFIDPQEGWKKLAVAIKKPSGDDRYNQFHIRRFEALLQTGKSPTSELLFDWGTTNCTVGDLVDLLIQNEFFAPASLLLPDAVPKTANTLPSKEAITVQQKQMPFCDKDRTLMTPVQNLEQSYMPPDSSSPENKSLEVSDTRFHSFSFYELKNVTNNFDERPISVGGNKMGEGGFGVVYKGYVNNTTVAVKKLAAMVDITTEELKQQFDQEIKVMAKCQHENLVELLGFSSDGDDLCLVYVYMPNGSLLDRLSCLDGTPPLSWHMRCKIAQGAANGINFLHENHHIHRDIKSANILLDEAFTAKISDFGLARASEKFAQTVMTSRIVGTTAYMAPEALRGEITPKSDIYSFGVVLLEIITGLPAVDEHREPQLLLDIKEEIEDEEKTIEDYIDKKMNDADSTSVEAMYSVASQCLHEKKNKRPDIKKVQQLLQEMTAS
Assay: IRAK4 MSD degradation in OCI-LY10
Type: cell-based
Details: OCI-LY10 cells, 24 hrs, Meso Scale Discovery
Outline: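 OCI-LY10 cells treated 4 to 24 hours at 37° C. with 8-dose 1:3 series, top 1 to 10 μM. IRAK4 in lysates quantified by MSD sandwich immunoassay (mouse capture, rabbit detection, SULFO-TAG anti-rabbit). DC50 from three-parameter logistic fit.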

Compound	DC50 [nM]
CN(C[C@H]1CC[C@H](n2cc(NC(=O)c3cnn4cccnc34)c(C(F)F)n2)CC1)[C@H]1CCN(c2cccc3c2n(C)c(=O)n3C2CCC(=O)NC2=O)C[C@H]1F (single isomer, unassigned) [I-145]	< 10
CN(C[C@H]1C[C@H](n2cc(NC(=O)c3cnn4ccc(N5C[C@H]6C[C@@H]5CO6)nc34)c(C(F)F)n2)C1)[C@@H]1CCN(c2cccc3c2n(C)c(=O)n3C2CCC(=O)NC2=O)C[C@@H]1F (single isomer, unassigned) [I-59]	< 10
C[C@H]1CN(c2ccn3ncc(C(=O)Nc4cn([C@H]5CC[C@H](CN(C)[C@H]6CCN(c7cccc8c7n(C)c(=O)n8C7CCC(=O)NC7=O)C[C@H]6F)CC5)nc4C(F)F)c3n2)CCO1 (some centres unmarked) [I-24]	< 10
COc1cc2nn([C@H]3CC[C@H](CN(C)[C@H]4CCN(c5cccc6c5n(C)c(=O)n6C5CCC(=O)NC5=O)C[C@@H]4F)CC3)cc2cc1NC(=O)c1cccc(C(F)(F)F)n1 (some centres unmarked) [I-80]	< 10
O=C1CCC(c2ccc(N3CC(CO[C@@H]4CCN(C[C@H]5CC[C@H](n6cc(NC(=O)c7cnn8ccc(N9C[C@H]%10C[C@@H]9CO%10)nc78)c(C(F)F)n6)CC5)C[C@@H]4F)C3)cc2Cl)C(=O)N1 (some centres unmarked) [I-38]	< 10
CN(C[C@H]1CC[C@H](n2cc(NC(=O)c3cnn4ccc(N5CCCC5)nc34)c(C(F)F)n2)CC1)[C@H]1CCN(c2cccc3c2n(C)c(=O)n3C2CCC(=O)NC2=O)C[C@@H]1F (some centres unmarked) [I-22]	< 10
COc1cc2nc([C@H]3CC[C@H](CN4CC[C@@H](c5cccc6c5n(C)c(=O)n6C5CCC(=O)NC5=O)[C@H](F)C4)CC3)sc2cc1NC(=O)c1cncc(C#N)c1 (some centres unmarked) [I-277]	> 200
COc1cc(C(=O)Nc2ccc3nn([C@H]4CC[C@H](CN5CCC6(CCN(c7cccc8c7n(C)c(=O)n8C7CCC(=O)NC7=O)CC6)C(F)(F)C5)CC4)cc3c2)nc(C(F)(F)F)c1 (some centres unmarked) [I-398]	> 200
Cc1nn(C2CCC(=O)NC2=O)c2cccc([C@H]3CCN(C[C@H]4CC[C@H](n5cc6cc(NC(=O)c7cccc(C(F)(F)F)n7)ncc6n5)CC4)C[C@@H]3F)c12 (some centres unmarked) [I-53]	10 to 100
CN1C(=O)CCC(n2c(=O)n(C)c3c(N4CC(N5CCN([C@H]6CC[C@H](n7cc(NC(=O)c8cnn9ccc(N%10C[C@H]%11C[C@@H]%10CO%11)nc89)c(C(F)F)n7)CC6)CC5)C4)c(F)ccc32)C1=O (some centres unmarked) [I-3]	> 200
CN(c1cccc(N2CCN(C[C@H]3CC[C@H](n4cc5cc(NC(=O)c6cccc(C(F)(F)F)n6)ncc5n4)CC3)CC2)c1)C1CCC(=O)NC1=O (some centres unmarked) [I-62]	100 to 200
Cc1nn(C2CCC(=O)NC2=O)c2cccc([C@@H]3CCN(C[C@H]4CC[C@H](n5cc6cc(NC(=O)c7cccc(C(F)(F)F)n7)ncc6n5)CC4)C[C@H]3F)c12 (some centres unmarked) [I-187]	10 to 100
Cn1c(=O)n(C2CCC(=O)NC2=O)c2cccc(N3CC(C4CCN([C@H]5CC[C@H](n6cc(NC(=O)c7cnn8ccc(N9C[C@H]%10C[C@@H]9CO%10)nc78)c(C(F)F)n6)CC5)CC4(F)F)C3)c21 (some centres unmarked) [I-115]	< 10
CN(C[C@H]1CC[C@H](n2cc(NC(=O)c3cnn4ccc(N5C[C@H]6C[C@@H]5CO6)nc34)c(C(F)F)n2)CC1)[C@H]1CCN(c2cccc3c2n(C)c(=O)n3[C@@H]2CCC(=O)NC2=O)C[C@@H]1F (single isomer, unassigned) [I-143]	< 10
Cn1nc(C2CCC(=O)NC2=O)c2cccc([C@@H]3CCN(C[C@H]4CC[C@H](n5cc6cc(NC(=O)c7cncc(C(F)(F)F)n7)ccc6n5)CC4)CC3(F)F)c21 (single isomer, unassigned) [I-379]	< 10
CN(C[C@H]1CC[C@H](n2cc3cc(NC(=O)c4cccc(C(F)(F)F)n4)ccc3n2)CC1)[C@H]1CCN(c2cccc3c2n(C)c(=O)n3C2CCC(=O)NC2=O)C[C@@H]1F (some centres unmarked) [I-33]	10 to 100
COc1cc2nc([C@H]3CC[C@H](CN4CC[C@@H](c5cccc6c5n(C)c(=O)n6C5CCC(=O)NC5=O)[C@H](F)C4)CC3)sc2cc1NC(=O)c1cccc(C(F)(F)F)n1 (single isomer, unassigned) [I-78]	100 to 200
Cn1nc(C2CCC(=O)NC2=O)c2cccc(N3CC(O)(CN4CCN(C[C@H]5CC[C@H](n6cc(NC(=O)c7cnn8ccc(N9C[C@H]%10C[C@@H]9CO%10)nc78)c(C(F)F)n6)CC5)CC4)C3)c21 (some centres unmarked) [I-86]	< 10
COc1cc2nn([C@H]3CC[C@H](CN4CCN(c5cccc6c5c(C)nn6C5CCC(=O)NC5=O)CC4)CC3)cc2cc1NC(=O)c1cncc(C)c1 (some centres unmarked) [I-118]	10 to 100
COc1ccc2c(c1N1CC[C@H](N(C)C[C@H]3CC[C@H](n4cc(NC(=O)c5cnn6cccnc56)c(C(F)F)n4)CC3)C(F)(F)C1)n(C)c(=O)n2C1CCC(=O)NC1=O (single isomer, unassigned) [I-289]	< 10
CN(C[C@H]1CC[C@H](c2nc3cc(C(C)(C)O)c(NC(=O)c4cccc(C(F)(F)F)n4)cc3o2)CC1)[C@@H]1CCN(c2cccc3c2n(C)c(=O)n3C2CCC(=O)NC2=O)C[C@@H]1F (some centres unmarked) [I-139]	< 10

Compound	DC50 [nM]
Cn1c(=O)n(C2CCC(=O)NC2=O)c2cccc([C@@H]3CCN(C[C@H]4CC[C@H](c5nc6cc(C(C)(C)O)c(NC(=O)c7cncc(C(F)(F)F)n7)cc6o5)CC4)CC3(F)F)c21 (single isomer, unassigned) [I-327]	< 10
COc1cc2nc([C@H]3CC[C@H](CN4CCC5(CCN(c6cccc7c6n(C)c(=O)n7C6CCC(=O)NC6=O)CC5)C(F)(F)C4)CC3)cn2cc1NC(=O)c1cncc(C#N)c1 (some centres unmarked) [I-168]	> 200
CN(C[C@H]1CC[C@H](c2nc3cc(C(C)(C)O)c(NC(=O)c4cccc(C(F)(F)F)n4)cc3s2)CC1)[C@H]1CCN(c2cccc3c2n(C)c(=O)n3C2CCC(=O)NC2=O)C[C@@H]1F (some centres unmarked) [I-239]	10 to 100
CC(C)(O)c1cc2nn([C@H]3CC[C@H](CN4CCN(c5cccc(NC6CCC(=O)NC6=O)c5)CC4)CC3)cc2cc1NC(=O)c1cccc(C(F)(F)F)n1 (some centres unmarked) [I-77]	10 to 100
CN1C(=O)CCC(n2c(=O)n(C)c3c([C@@H]4CCN(C[C@H]5CC[C@H](n6cc7cc(NC(=O)c8cncc(C(F)(F)F)n8)ccc7n6)CC5)C[C@H]4F)cccc32)C1=O (some centres unmarked) [I-382]	> 200
Cn1c(=O)n(C2CCC(=O)NC2=O)c2cccc(N3CC(OC[C@H]4CC[C@H](n5cc6cc(NC(=O)c7cccc(C(F)(F)F)c7)ccc6n5)CC4)C3)c21 (some centres unmarked) [I-251]	> 200
Cn1c(=O)n(C2CCC(=O)NC2=O)c2cccc(OC3CC4(CCN(Cc5ccc(-n6cc(NC(=O)c7cnn8ccc(N9C[C@H]%10C[C@@H]9CO%10)nc78)c(C(F)F)n6)cc5)CC4)C3)c21 (some centres unmarked) [I-113]	< 10
CN(C[C@H]1CC[C@H](n2cc(NC(=O)c3cnn4ccc(N5C[C@H]6C[C@@H]5CO6)nc34)c(C(F)F)n2)CC1)[C@H]1CCN(c2cccc3c2n(C)c(=O)n3[C@H]2CCC(=O)NC2=O)C[C@@H]1F (single isomer, unassigned) [I-144]	< 10
Cn1nc(C2CCC(=O)NC2=O)c2cccc([C@@H]3CCN(C[C@H]4CC[C@H](n5cc6cc(NC(=O)c7cccc(C(F)(F)F)n7)ccc6n5)CC4)C[C@H]3F)c21 (some centres unmarked) [I-122]	< 10
CN1C(=O)CCC(n2c(=O)n(C)c3c([C@@H]4CCN(C[C@H]5CC[C@H](n6cc7cc(NC(=O)c8cncc(C(F)(F)F)n8)ccc7n6)CC5)CC4(F)F)cccc32)C1=O (some centres unmarked) [I-378]	> 200
CN(C[C@H]1CC[C@H](n2cc3cc(NC(=O)c4cccc(C(F)(F)F)n4)c(C(C)(C)O)cc3n2)CC1)[C@H]1CCN(c2cccc3c2n(C)c(=O)n3C2CCC(=O)NC2=O)C[C@@H]1F (some centres unmarked) [I-68]	< 10
O=C1CC[C@@H](c2ccc(N3CC(N4CCN([C@H]5CC[C@H](n6cc(NC(=O)c7cnn8ccc(N9C[C@H]%10C[C@@H]9CO%10)nc78)c(C(F)F)n6)CC5)CC4)C3)cc2Cl)C(=O)N1 [I-125]	10 to 100
Cn1c(=O)n(C2CCC(=O)NC2=O)c2cccc(N3CCN(C[C@H]4CC[C@H](n5cc6cc(NC(=O)c7cncc(C(F)(F)F)n7)ccc6n5)CC4)[C@H](C(F)(F)F)C3)c21 (some centres unmarked) [I-368]	10 to 100
CN(C[C@H]1CC[C@H](c2cn3cc(NC(=O)c4cncc(C(F)(F)F)n4)c(C(C)(C)O)cc3n2)CC1)[C@H]1CCN(c2cccc3c2n(C)c(=O)n3C2CCC(=O)NC2=O)C[C@H]1F (single isomer, unassigned) [I-336]	< 10
CN(C[C@H]1CC[C@H](n2cc3cc(NC(=O)c4cccc(C(F)(F)F)n4)ncc3n2)CC1)[C@H]1CCN(c2cccc3c2n(C)c(=O)n3C2CCC(=O)NC2=O)C[C@@H]1F (single isomer, unassigned) [I-36]	10 to 100
CN(C[C@H]1CC[C@H](n2cc3cc(NC(=O)c4cccc(C(F)(F)F)n4)ccc3n2)CC1)[C@H]1CCN(c2cccc3c2n(C)c(=O)n3C2CCC(=O)NC2=O)C[C@H]1F (some centres unmarked) [I-31]	< 10
Cc1cc(C(=O)Nc2ccc3nn([C@H]4CC[C@H](CN5CC[C@@H](c6cccc7c6n(C)c(=O)n7C6CCC(=O)NC6=O)C(F)(F)C5)CC4)cc3c2)nc(C(F)(F)F)c1 (some centres unmarked) [I-402]	> 200
COc1cc2nc([C@H]3CC[C@H](CN4CC[C@H](c5cccc6c5n(C)c(=O)n6C5CCC(=O)NC5=O)[C@@H](F)C4)CC3)sc2cc1NC(=O)c1cccc(C(F)(F)F)n1 (single isomer, unassigned) [I-79]	> 200
Cn1c(=O)n(C2CCC(=O)NC2=O)c2cccc(N3CCN(C[C@H]4CC[C@H](n5cc6cc(NC(=O)c7cncc(C(F)(F)F)n7)ccc6n5)CC4)C[C@H]3C(F)(F)F)c21 (single isomer, unassigned) [I-325]	10 to 100
Cn1c(=O)n(C2CCC(=O)NC2=O)c2cccc(C3CCN(C[C@H]4CC[C@H](n5cc6cc(NC(=O)c7cncc(C(F)(F)F)n7)ccc6n5)CC4)C(=O)C3)c21 (some centres unmarked) [I-358]	< 10
